# Test results from PMC4215638, “J-147 a Novel Hydrazide Lead Compound to Treat Neurodegeneration: CeeTox™ Safety and Genotoxicity Analysis” (Journal of neurology & neurophysiology, 2013).
# Assay: Microsomal metabolic stability
# Format: in vitro ADME
# Details: 30 minutes at 37°C, rat microsomes
# Protocol: Metabolic stability was conducted using pooled microsomes from non-induced male Sprague-Dawley rats. J-147 was incubated for 30 minutes at 37°C at concentrations of 1 μM. Subsequent HPLC analysis using a Waters Alliance 2795 in combination with a Waters Quattro Premier mass spectrometer measured disappearance of the parent molecule. The compounds were run on a Waters X-BridgeC18 (186003021) 50 × 2.1 mm column with 3.5 micron particle packing at a flow rate of 1 ml/min and with the temperature maintained at 50°C. Solvent A was water with 0.1% formic acid. Solvent B was acetonitrile with 0.07% formic acid. The data for 3 replicates are expressed as percent of parent remaining.
compound,measurement,setting,value
"Cc1ncc2n1-c1ccc(Cl)cc1C(c1ccccc1F)=NC2 [Midazolam, reference compound]",Metabolism Ranking,1 μM,High (<45=high)
same,"remaining at 0.5 h, 1 μM","male, Sprague-Dawley, pooled microsomes from non-induced rats, percent of parent remaining",0 to 3%
